# Source: patent US11649255B2, “Indazoles as hematopoietic progenitor kinase 1 (HPK1) inhibitors and methods using same” (1st Biotherapeutics, Inc., priority 2020, dated 2023)
# Molecular target: recombinant human HPK1 (Homo sapiens (Human), UniProt Q92918)
# Experiment: HPK1 kinase assay (ADP-Glo)
# Type: biochemical
# Conditions: 25 μM ATP, MBP substrate
# Method in brief: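 Activity was read as ADP formed, detected by ADP-Glo luminescence after the reaction of 5 ng recombinant human HPK1 with MBP and ATP (stocks 0.5 μg/μl and 25 μM) for 40 min at 30 °C. Buffer was Tris pH 7.5 with MgCl2, BSA and DTT, with compound in 0.5% DMSO. IC50 came from inhibition curves.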
# Chain of recombinant human HPK1 (Q92918 whole entry): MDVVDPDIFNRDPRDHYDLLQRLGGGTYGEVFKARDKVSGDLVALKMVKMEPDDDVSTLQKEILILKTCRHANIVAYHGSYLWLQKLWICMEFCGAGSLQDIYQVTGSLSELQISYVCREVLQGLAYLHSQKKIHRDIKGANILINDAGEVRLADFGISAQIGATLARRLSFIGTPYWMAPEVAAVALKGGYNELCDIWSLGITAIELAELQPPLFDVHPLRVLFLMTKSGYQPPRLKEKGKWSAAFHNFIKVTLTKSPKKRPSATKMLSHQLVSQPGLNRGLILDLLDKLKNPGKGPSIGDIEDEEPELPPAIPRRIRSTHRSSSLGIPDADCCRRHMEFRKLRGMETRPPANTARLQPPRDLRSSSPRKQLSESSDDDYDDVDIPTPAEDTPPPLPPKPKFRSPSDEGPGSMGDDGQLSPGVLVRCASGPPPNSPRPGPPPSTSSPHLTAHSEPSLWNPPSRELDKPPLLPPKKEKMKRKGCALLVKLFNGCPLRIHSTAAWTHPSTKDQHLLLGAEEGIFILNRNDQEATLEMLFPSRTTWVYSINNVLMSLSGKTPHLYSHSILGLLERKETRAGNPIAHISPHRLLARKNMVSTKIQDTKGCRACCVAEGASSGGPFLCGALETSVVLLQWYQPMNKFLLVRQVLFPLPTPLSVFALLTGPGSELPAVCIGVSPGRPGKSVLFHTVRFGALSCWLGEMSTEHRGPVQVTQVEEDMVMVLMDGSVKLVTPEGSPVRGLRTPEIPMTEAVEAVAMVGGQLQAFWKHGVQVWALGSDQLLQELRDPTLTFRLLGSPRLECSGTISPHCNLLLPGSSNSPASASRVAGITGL
row,IC50 [nM],Compound
1,< 100,"CC(=O)c1ccc2[nH]ncc2c1-c1ccc2nc(NC(=O)C3CC3)cn2c1 [Example 239, N-(6-(5-acetyl-1H-indazol-4-yl)imidazo[1,2-a]pyridin-2-yl)cyclopropanecarboxamide]"
2,< 100,"C#Cc1c(F)cc2[nH]ncc2c1-c1ccc2nc(NC(=O)[C@@H]3C[C@@H]3F)sc2c1 [Example 47, (1S,2S)-N-(6-(5-ethynyl-6-fluoro-1H-indazol-4-yl)benzo[d]thiazol-2-yl)-2-fluorocyclopropane-1-carboxamide]"
3,< 100,"CC(NC(=O)C(F)F)c1c(F)c(Cl)c(-c2ccn3nc(NC(=O)[C@@H]4C[C@@H]4F)cc3c2)c2cn[nH]c12 (stereo partly drawn) [Example 665, (1S,2S)-N-(5-(5-chloro-7-(1-(2,2-difluoroacetamido)ethyl)-6-fluoro-1H-indazol-4-yl)pyrazolo[1,5-a]pyridin-2-yl)-2-fluorocyclopropane-1-carboxamide]"
4,< 100,"COc1c(F)c(C)c(-c2ccn3nc(NC(=O)[C@@H]4C[C@@H]4F)cc3c2)c2cn[nH]c12 [Example 491, (1S,2S)-2-fluoro-N-(5-(6-fluoro-7-methoxy-5-methyl-1H-indazol-4-yl)pyrazolo[1,5-a]pyridin-2-yl)cyclopropane-1-carboxamide]"
5,< 100,"N#Cc1ccc2[nH]ncc2c1-c1ccc2nc(NC(=O)C3CC3)cn2c1 [Example 232, N-(6-(5-cyano-1H-indazol-4-yl)imidazo[1,2-a]pyridin-2-yl)cyclopropanecarboxamide]"
6,> 1000,"O=C(O)c1c(F)c(Cl)c(-c2ccc3nc(NC(=O)[C@@H]4C[C@@H]4F)cn3c2)c2cn[nH]c12 [Example 314, 5-chloro-6-fluoro-4-(2-((1S,2S)-2-fluorocyclopropane-1-carboxamido)imidazo[1,2-a]pyridin-6-yl)-1H-indazole-7-carboxylic acid]"
7,< 100,"CSc1c(F)c(Cl)c(-c2ccn3nc(NC(=O)[C@@H]4C[C@@H]4F)cc3c2)c2cn[nH]c12 [Example 485, (1S,2S)-N-(5-(5-chloro-6-fluoro-7-(methylthio)-1H-indazol-4-yl)pyrazolo[1,5-a]pyridin-2-yl)-2-fluorocyclopropane-1-carboxamide]"
8,< 100,"CCc1c(F)c(F)c2[nH]ncc2c1-c1ccc2nc(NC(=O)[C@@H]3C[C@@H]3F)cn2c1 [Example 298, (1S,2S)-N-(6-(5-ethyl-6,7-difluoro-1H-indazol-4-yl)imidazo[1,2-a]pyridin-2-yl)-2-fluorocyclopropane-1-carboxamide]"
9,101 to 500,"O=C(Nc1nc2ccc(-c3c(Cl)c(F)c(N4CCC(O)C4)c4[nH]ncc34)cc2s1)[C@@H]1C[C@@H]1F (stereo partly drawn) [Example 78, (1S,2S)-N-(6-(5-chloro-6-fluoro-7-(3-hydroxypyrrolidin-1-yl)-1H-indazol-4-yl)benzo[d]thiazol-2-yl)-2-fluorocyclopropane-1-carboxamide]"
10,< 100,"CNC(=O)C(C)c1c(F)c(Cl)c(-c2ccc3nc(NC(=O)[C@@H]4C[C@@H]4F)cn3c2)c2cn[nH]c12 (stereo partly drawn) [Example 433, (1S,2S)-N-(6-(5-chloro-6-fluoro-7-(1-(methylamino)-1-oxopropan-2-yl)-1H-indazol-4-yl)imidazo[1,2-a]pyridin-2-yl)-2-fluorocyclopropane-1-carboxamide]"
11,< 100,"CC(=O)NC(C)c1c(F)c(Cl)c(-c2ccc3nc(NC(=O)[C@@H]4C[C@@H]4F)cn3c2)c2cn[nH]c12 (stereo partly drawn) [Example 417, (1S,2S)-N-(6-(7-(1-acetamidoethyl)-5-chloro-6-fluoro-1H-indazol-4-yl)imidazo[1,2-a]pyridin-2-yl)-2-fluorocyclopropane-1-carboxamide]"
12,< 100,"O=C(Nc1cc2cc(-c3cc(F)c(OC(F)(F)F)c4[nH]ncc34)ccn2n1)[C@@H]1C[C@@H]1F [Example 587, (1S,2S)-2-fluoro-N-(5-(6-fluoro-7-(trifluoromethoxy)-1H-indazol-4-yl)pyrazolo[1,5-a]pyridin-2-yl)cyclopropane-1-carboxamide]"
13,< 100,"COc1c(F)c(C)c(-c2ccc3nc(NC(=O)[C@@H]4C[C@@H]4F)cn3c2)c2cn[nH]c12 [Example 271, (1S,2S)-2-fluoro-N-(6-(6-fluoro-7-methoxy-5-methyl-1H-indazol-4-yl)imidazo[1,2-a]pyridin-2-yl)cyclopropane-1-carboxamide]"
14,< 100,"CCOc1c(F)c(N(C)C)c2[nH]ncc2c1-c1ccn2nc(NC(=O)[C@@H]3C[C@@H]3F)cc2c1 [Example 610, (1S,2S)-N-(5-(7-(dimethylamino)-5-ethoxy-6-fluoro-1H-indazol-4-yl)pyrazolo[1,5-a]pyridin-2-yl)-2-fluorocyclopropane-1-carboxamide]"
15,< 100,"O=C(Nc1cn2cc(-c3c(C(F)(F)F)ccc4[nH]ncc34)ccc2n1)[C@@H]1C[C@@H]1F [Example 236, (1S,2S)-2-fluoro-N-(6-(5-(trifluoromethyl)-1H-indazol-4-yl)imidazo[1,2-a]pyridin-2-yl)cyclopropane-1-carboxamide]"
16,< 100,"CC(=O)N(C)C(C)c1c(F)c(Cl)c(-c2ccc3nc(NC(=O)[C@@H]4C[C@@H]4F)cn3c2)c2cn[nH]c12 (stereo partly drawn) [Example 412, (1S,2S)-N-(6-(5-chloro-6-fluoro-7-(1-(N-methylacetamido)ethyl)-1H-indazol-4-yl)imidazo[1,2-a]pyridin-2-yl)-2-fluorocyclopropane-1-carboxamide]"
17,101 to 500,"C=Cc1n[nH]c2cc(F)c(C)c(-c3ccn4nc(NC(=O)[C@@H]5C[C@@H]5F)cc4c3)c12 [Example 474, (1S,2S)-2-fluoro-N-(5-(6-fluoro-5-methyl-3-vinyl-1H-indazol-4-yl)pyrazolo[1,5-a]pyridin-2-yl)cyclopropane-1-carboxamide]"
18,< 100,"CNC(=O)N(C)c1c(F)c(Cl)c(-c2ccn3nc(NC(=O)[C@@H]4C[C@@H]4F)cc3c2)c2cn[nH]c12 [Example 664, (1S,2S)-N-(5-(5-chloro-7-(1,3-dimethylureido)-6-fluoro-1H-indazol-4-yl)pyrazolo[1,5-a]pyridin-2-yl)-2-fluorocyclopropane-1-carboxamide]"
19,< 100,"CC(Nc1c(F)c(Cl)c(-c2ccc3nc(NC(=O)[C@@H]4C[C@@H]4F)cn3c2)c2cn[nH]c12)C1CC1 (stereo partly drawn) [Example 420, (1S,2S)-N-(6-(5-chloro-7-((1-cyclopropylethyl)amino)-6-fluoro-1H-indazol-4-yl)imidazo[1,2-a]pyridin-2-yl)-2-fluorocyclopropane-1-carboxamide]"
20,< 100,"CCN(CC)c1c(F)c(Cl)c(-c2ccn3nc(NC(=O)[C@@H]4C[C@@H]4F)cc3c2)c2cn[nH]c12 [Example 497, (1S,2S)-N-(5-(5-chloro-7-(diethylamino)-6-fluoro-1H-indazol-4-yl)pyrazolo[1,5-a]pyridin-2-yl)-2-fluorocyclopropane-1-carboxamide]"
21,< 100,"O=C(Nc1cn2cc(-c3c(Cl)c(F)c(C4CCCC4)c4[nH]ncc34)ccc2n1)[C@@H]1C[C@@H]1F [Example 406, (1S,2S)-N-(6-(5-chloro-7-cyclopentyl-6-fluoro-1H-indazol-4-yl)imidazo[1,2-a]pyridin-2-yl)-2-fluorocyclopropane-1-carboxamide]"
22,< 100,"O=C(Nc1cc2cc(-c3c(Cl)c(F)c(Cl)c4[nH]ncc34)ccn2n1)[C@@H]1C[C@@H]1F [Example 476, (1S,2S)-N-(5-(5,7-dichloro-6-fluoro-1H-indazol-4-yl)pyrazolo[1,5-a]pyridin-2-yl)-2-fluorocyclopropane-1-carboxamide]"
